Assay results as given in ChEMBL document CHEMBL5126603, “Discovery of Clinical Candidate CHF-6366: A Novel Super-soft Dual Pharmacology Muscarinic Antagonist and β2 Agonist (MABA) for the Inhaled Treatment of Respiratory Diseases” (J Med Chem, 2022).

What was measured:
[1] = Metabolic stability in rat lung S9 fraction assessed as half life at 1 uM measured after 0 to 60 mins in presence of NADPH by LC-MS/MS analysis; assay type: ADME, subcellular; details: time 0-60 min
[2] = Metabolic stability in human hepatocytes assessed as clearance at 1 uM measured per 10^6 cells and incubated upto 90 mins by LC-MS/MS analysis; assay type: ADME, cell-based, Hepatocyte; details: read-out: CLH
[3] = Metabolic stability in Dunkin-Hartley guinea pig hepatocytes assessed as clearance at 1 uM measured per 10^6 cells and incubated upto 90 mins by LC-MS/MS analysis; assay type: ADME, cell-based, Cavia porcellus, Hepatocyte; details: read-out: CLH
[4] = Metabolic stability in human liver microsomes assessed as clearance at 1 uM measured per mg protein incubated upto 60 mins in presence of NADPH by LC-MS/MS analysis; assay type: ADME, Microsome; details: read-out: CLH
[5] = Metabolic stability in rat liver microsomes assessed as clearance at 1 uM measured per mg protein incubated upto 60 mins in presence of NADPH by LC-MS/MS analysis; assay type: ADME, Microsome; details: read-out: CLH
[6] = Metabolic stability in human lung S9 fraction assessed as half life at 1 uM measured after 0 to 60 mins in presence of NADPH by LC-MS/MS analysis; assay type: ADME, subcellular; details: time 0-60 min
[7] = Metabolic stability in Dunkin-Hartley guinea pig lung S9 fraction assessed as half life at 1 uM measured after 0 to 60 mins in presence of NADPH by LC-MS/MS analysis; assay type: ADME, subcellular, Cavia porcellus; details: time 0-60 min
[8] = Apparent permeability across basolateral to apical side in human Caco-2 cells at 10 uM and measured after 2 hrs by LC-MS/MS analysis; assay type: ADME, cell-based
[9] = Metabolic stability in rat plasma assessed as half life at 5 uM measured upto 120 mins by LC-MS/MS analysis; assay type: ADME, cell-free
[10] = Metabolic stability in Dunkin-Hartley guinea pig plasma assessed as half life at 5 uM measured upto 120 mins by LC-MS/MS analysis; assay type: ADME, cell-free, Cavia porcellus
[11] = Tmax in Dunkin-Hartley guinea pig lung at 500 nmol/Kg, IT(Intratracheal) measured after 72 hrs by LC/MS-MS analysis; assay type: ADME, tissue-based, Cavia porcellus; details: inhaled or intranasal
[12] = AUClast in Dunkin-Hartley guinea pig lung at 500 nmol/Kg, IT(Intratracheal) measured after 72 hrs by LC/MS-MS analysis; assay type: ADME, tissue-based, Cavia porcellus; details: in vivo, inhaled_or_intranasal
[13] = Half life in Dunkin-Hartley guinea pig lung at 500 nmol/Kg, IT(Intratracheal) measured after 72 hrs by LC/MS-MS analysis; assay type: ADME, tissue-based, Cavia porcellus; details: inhaled or intranasal
[14] = Tmax in Dunkin-Hartley guinea pig plasma at 500 nmol/Kg, IT(Intratracheal) measured after 72 hrs by LC/MS-MS analysis; assay type: ADME, cell-free, Cavia porcellus; details: inhaled or intranasal
[15] = AUClast in Dunkin-Hartley guinea pig plasma at 500 nmol/Kg, IT(Intratracheal) measured after 72 hrs by LC/MS-MS analysis; assay type: ADME, cell-free, Cavia porcellus; design: time 72 hrs, dose 500 nmol/kg, route it(Intratracheal); details: inhaled or intranasal
[16] = Half life in Dunkin-Hartley guinea pig plasma at 500 nmol/Kg, IT(Intratracheal) measured after 72 hrs by LC/MS-MS analysis; assay type: ADME, cell-free, Cavia porcellus; details: inhaled or intranasal
[17] = Mutagenicity in Salmonella typhimurium assessed as induction of reverse mutation by Ames test; assay type: toxicity; details: salmonella enterica subsp. enterica serovar typhimurium
[18] = Mutagenicity in Escherichia coli assessed as induction of reverse mutation by Ames test; assay type: toxicity
Trachea [19] = experiment: In vivo bifunctional antagonist activity at muscarinic M3 receptor /agonist activity at beta-2 adrenoceptor in Dunkin-Hartley guinea pig trachea assessed as time duration for inhibition of carbachol induced contraction measured […]; assay type: functional, Cavia porcellus
Trachea [20] = experiment: (§1) Bifunctional antagonist activity at muscarinic M3 receptor /agonist activity at beta-2 adrenoceptor in Dunkin-Hartley guinea pig trachea assessed as inhibition of acetylcholine-induced bronchoconstriction at 0.1 nmol/Kg, IT(Intratracheal) measured after 5 mins by Konzett-Roessler methodology relative to control; assay type: functional; details: Cavia porcellus
Trachea [21] = experiment: as §1, with “0.3” for “0.1”; assay type: functional; details: Cavia porcellus
Trachea [22] = experiment: as §1, with “1” for “0.1”; assay type: functional; details: Cavia porcellus
Trachea [23] = experiment: as §1, with “1” for “0.1”, “15” for “5”; assay type: functional; details: Cavia porcellus, 0.25 h
[24] = target: D(2) dopamine receptor (Homo sapiens) (UniProt P14416); experiment: Inhibition of dopamine D2 receptor (unknown origin) at 10 uM relative to control
[25] = target: 5-hydroxytryptamine receptor 2A (Homo sapiens) (UniProt P28223); experiment: Inhibition of 5-HT2a (unknown origin) at 10 uM relative to control
[26] = target: T1, 5-hydroxytryptamine receptor 2C (Homo sapiens) (UniProt P28335); experiment: Inhibition of 5-HT2c (unknown origin) at 10 uM relative to control
T1 sequence (whole entry): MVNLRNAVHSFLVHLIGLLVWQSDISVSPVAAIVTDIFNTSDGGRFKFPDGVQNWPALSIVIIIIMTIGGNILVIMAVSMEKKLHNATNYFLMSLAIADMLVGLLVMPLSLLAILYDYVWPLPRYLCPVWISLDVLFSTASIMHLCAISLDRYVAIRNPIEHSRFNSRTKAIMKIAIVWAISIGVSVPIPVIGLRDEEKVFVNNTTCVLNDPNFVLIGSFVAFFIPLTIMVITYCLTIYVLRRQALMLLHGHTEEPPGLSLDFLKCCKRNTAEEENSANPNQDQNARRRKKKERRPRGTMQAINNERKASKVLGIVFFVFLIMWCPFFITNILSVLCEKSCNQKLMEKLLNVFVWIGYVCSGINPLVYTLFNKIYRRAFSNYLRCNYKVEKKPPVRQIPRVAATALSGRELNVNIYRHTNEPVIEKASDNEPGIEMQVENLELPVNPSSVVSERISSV

[27] = target: Sodium-dependent serotonin transporter (Homo sapiens) (UniProt P31645); experiment: Inhibition of serotonin transporter (unknown origin) at 10 uM relative to control
[28] = target: L-type calcium channel phenylalkylamine site (Homo sapiens, UniProt O60840+Q01668+Q13698+Q13936); experiment: Inhibition of L-type calcium channel phenylalkylamine site (unknown origin) at 10 uM relative to control; assay type: protein assay
[29] = In vivo antagonist activity at muscarinic M3 receptor in Dunkin-Hartley guinea pig trachea assessed as inhibition of acetylcholine induced bronchoconstriction at 1 nmol/Kg, IT(Intratracheal) measured after 24 hr in presence of ICI-118551 by Konzett-Roessler methodology relative to control; assay type: functional; details: Cavia porcellus
[30] = In vivo agonist activity at beta-2 adrenoceptor in Dunkin-Hartley guinea pig trachea assessed as inhibition of histamine induced bronchoconstriction at 1 nmol/Kg, IT(Intratracheal) measured after 1 hr by Konzett-Roessler methodology relative to control; assay type: functional; details: Cavia porcellus
[31] = In vivo agonist activity at beta-2 adrenoceptor in Dunkin-Hartley guinea pig trachea assessed as inhibition of histamine induced bronchoconstriction at 1 nmol/Kg, IT(Intratracheal) measured after 24 hr by Konzett-Roessler methodology relative to control; assay type: functional; details: Cavia porcellus
[32] = In vivo agonist activity at beta-2 adrenoceptor in Dunkin-Hartley guinea pig trachea assessed as inhibition of histamine induced bronchoconstriction at 0.3 nmol/Kg, IT(Intratracheal) measured after 1 hr by Konzett-Roessler methodology relative to control; assay type: functional; details: Cavia porcellus

5-hydroxytryptamine receptor 2A (Homo sapiens), sequence (P28223 whole entry): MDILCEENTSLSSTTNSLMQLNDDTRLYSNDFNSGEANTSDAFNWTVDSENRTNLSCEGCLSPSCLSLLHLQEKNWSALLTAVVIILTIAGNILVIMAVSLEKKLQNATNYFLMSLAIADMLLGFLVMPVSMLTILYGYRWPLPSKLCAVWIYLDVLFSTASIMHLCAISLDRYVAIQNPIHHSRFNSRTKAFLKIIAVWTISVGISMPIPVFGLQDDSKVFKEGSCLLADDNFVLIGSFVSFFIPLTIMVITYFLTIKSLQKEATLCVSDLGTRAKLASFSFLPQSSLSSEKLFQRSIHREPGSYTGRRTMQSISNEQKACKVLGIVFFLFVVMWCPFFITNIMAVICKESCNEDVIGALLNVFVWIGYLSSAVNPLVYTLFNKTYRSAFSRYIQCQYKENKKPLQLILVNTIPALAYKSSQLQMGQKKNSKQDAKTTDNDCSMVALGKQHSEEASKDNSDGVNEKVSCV
D(2) dopamine receptor (Homo sapiens), sequence (P14416 whole entry): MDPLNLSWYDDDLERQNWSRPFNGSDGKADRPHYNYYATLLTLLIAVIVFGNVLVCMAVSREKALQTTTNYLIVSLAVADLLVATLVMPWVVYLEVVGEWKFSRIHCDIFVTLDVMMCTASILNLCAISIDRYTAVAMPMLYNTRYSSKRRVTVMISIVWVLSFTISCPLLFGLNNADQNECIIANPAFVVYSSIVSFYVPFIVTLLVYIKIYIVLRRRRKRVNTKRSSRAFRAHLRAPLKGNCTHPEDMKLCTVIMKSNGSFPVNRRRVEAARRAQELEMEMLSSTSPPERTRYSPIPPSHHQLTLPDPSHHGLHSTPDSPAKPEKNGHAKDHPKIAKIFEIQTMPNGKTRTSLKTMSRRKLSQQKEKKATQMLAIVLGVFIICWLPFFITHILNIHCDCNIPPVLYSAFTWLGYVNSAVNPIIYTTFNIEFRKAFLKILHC
Sodium-dependent serotonin transporter (Homo sapiens), sequence (P31645 whole entry, looked up): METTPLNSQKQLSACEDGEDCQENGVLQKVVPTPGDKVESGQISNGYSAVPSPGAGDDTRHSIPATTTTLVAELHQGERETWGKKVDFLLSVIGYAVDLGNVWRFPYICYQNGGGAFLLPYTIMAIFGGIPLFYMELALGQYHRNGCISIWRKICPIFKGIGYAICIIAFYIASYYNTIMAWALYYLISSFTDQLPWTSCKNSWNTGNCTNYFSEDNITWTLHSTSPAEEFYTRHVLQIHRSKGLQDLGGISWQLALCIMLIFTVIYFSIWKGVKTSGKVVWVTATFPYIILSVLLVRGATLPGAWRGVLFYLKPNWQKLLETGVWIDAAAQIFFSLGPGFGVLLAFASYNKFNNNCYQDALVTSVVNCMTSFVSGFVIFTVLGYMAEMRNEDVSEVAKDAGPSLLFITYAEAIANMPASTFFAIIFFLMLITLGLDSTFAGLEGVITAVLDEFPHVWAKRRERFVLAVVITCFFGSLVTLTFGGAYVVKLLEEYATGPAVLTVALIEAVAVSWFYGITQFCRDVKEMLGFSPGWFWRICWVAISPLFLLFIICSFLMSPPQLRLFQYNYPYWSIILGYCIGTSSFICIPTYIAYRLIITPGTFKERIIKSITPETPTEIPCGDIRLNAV

With `Cn1nc(C(=O)OCCCCNC[C@H](O)c2ccc(O)c3[nH]c(=O)ccc23)cc1COc1cccc([C@@H](NC(=O)O[C@H]2CN3CCC2CC3)c2ccccc2)c1` the half-life at 1 µM [1] was 30 min, the hepatocyte CLint at 1 µM [2] was 33 µL/min/1e6 cells and the hepatocyte CLint at 1 µM [3] was 37 µL/min/1e6 cells. The microsomal CLint at 1 µM [4] was 14 µL/min/mg, the microsomal CLint at 1 µM [5] was 37 µL/min/mg and the half-life at 1 µM [6] was greater than 120 min. It also gave a half-life at 1 µM [7] greater than 120 min, a Papp B→A at 2 h, 10 µM [8] of 1.5 ×10⁻⁶ cm/s and a half-life at 5 µM [9] of less than 5 min. For the same compound, the half-life at 5 µM [10] was 34 min, the Tmax [11] was 4.98 min and the AUClast [12] was 460361 ng·h/g. It also gave a half-life [13] of 49.2 h, a Tmax [14] of 4.98 min and an AUC(0-t) at 72 h [15] of 460 ng·h/mL. The half-life [16] was 924 min, the Activity [17] was “Non-Toxic” and the Activity [18] was “Non-Toxic”. For the same compound, the Time (Trachea [19]) was greater than 225 min, the inhibition in vivo at 0.0001 µmol/kg (Trachea [20]) was 9.7% and the inhibition in vivo at 0.0003 µmol/kg (Trachea [21]) was 56.6%. It also gave an inhibition in vivo at 0.001 µmol/kg (Trachea [22]) of 90.1%, an inhibition in vivo at 0.001 µmol/kg (Trachea [23]) of 91.3% and an inhibition [24] greater than 65%. The inhibition [25] was greater than 65%, the inhibition [26] was greater than 65% and the inhibition [27] was greater than 65%. For the same compound, the inhibition at 10 µM [28] was greater than 65%, the inhibition in vivo at 0.001 µmol/kg [29] was 47.2% and the inhibition in vivo at 0.001 µmol/kg [30] was 69.8%. The inhibition in vivo at 0.001 µmol/kg [31] was 50.1% and the inhibition in vivo at 0.0003 µmol/kg [32] was 31.9%.
